Measured values reported in patent publication US20150322049A1, “LEUKOTRIENE PATHWAY ANTAGONISTS FOR THE TREATMENT OF DEMENTIA, COGNITIVE DEFICITS IN PARKINSON'S DISEASE AND/OR LEARNING AND MEMORY DEFICIENCIES IN PARKINSON'S DISEASE” (priority 2012, published 2015).
Where two headings read alike, the source gives them in different places.

What was measured:
[1] = system: neural progenitor cells (NPC); conditions: cited from earlier work; for influence on the proliferation of NPCs: treatment of NPCs with leukotriene
[2] = system: neural stem cell (NSC); conditions: cited from earlier work
[3] = Body weight on day 1 and day 42 of treatment; type: in vivo, rat; conditions: young and old rats, 10 mg kg^-1 p.o. daily
Method: For the analysis of cell survival and cell differentiation, all rats received intraperitoneal injections of BrdU (Sigma, Germany) at 50 mg kg^−1 of body weight dissolved in 0.9% saline solution on day 12, 13, 14 and 15.
GPR17 is highly expressed in food-intake-regulating Agrp Neurons, and intraventricular infusion of GPR17 agonists elevates food intake (Ren, 2012, Cell, 8; 149(6):1314-26). […] Therefore, each rat was weighed at the beginning of the experiment (day 1) and directly before the perfusion (day 42).

[4] = system: young rats; conditions: intraperitoneal, combination treatment with rofecoxib; cited from earlier work
[5] = system: CysLT1R-mediated amyloid-beta generation; conditions: cited from earlier work
[6] = system: Alzheimer's disease patients; conditions: cited from earlier work

## CC(C)(O)c1ccccc1CC[C@@H](SCC1(CC(=O)O)CC1)c1cccc(/C=C/c2ccc3ccc(Cl)cc3n2)c1 [Montelukast, montelukast]
[1]; 1 μM
  NPC proliferation rate: did not alter
[1]; 10 μM
  NPC proliferation: increased proliferation
[1]; 15 μM
  NPC proliferation: increased proliferation
[1]; 30 μM
  NPC proliferation rate: did not alter
[1]; 50 μM
  NPC proliferation: significant reduction
[1]; 100 μM
  NPC proliferation: significant reduction
[2]; 15 μM
  NSC proliferation: significantly increase
[2]; 30 μM
  proliferative potential of the NSCs: significantly reduced
[2]; 100 μM
  proliferative potential of the NSCs: significantly reduced
[3]
  body weight vs vehicle treated counterparts: did not differ
[3]; listed as montelukast
  body weight vs vehicle treated counterparts: remained stable
[4]
  effect against kainic acid-induced cognitive dysfunction in combination with rofecoxib: potentiates the protective effect of rofecoxib

## CCCCC/C=C\C\C=C/C=C/C=C/[C@@H](SC[C@H](N)C(=O)NCC(=O)O)[C@@H](O)CCCC(=O)O [Leukotriene D4]
[5]; 3 month old mice
  effect on cognition: induce cognitive impairment
[1]
  influence on the proliferation of NPCs: no influence

## COc1ccc2c(c1)c(CC(=O)O)c(C)n2C(=O)c1ccc(Cl)cc1 [indomethacin]
[6]
  mental functions: stabilize mental functions

## CCCCC/C=C\C\C=C/C=C/C=C/[C@@H](SC[C@H](NC(=O)CC[C@H](N)C(=O)O)C(=O)NCC(=O)O)[C@@H](O)CCCC(=O)O [Leukotriene C4]
[1]
  influence on the proliferation of NPCs: no influence

## pranlukast
[5]; 3 month old mice, injected bilaterally 2.5 mm below the dura
  leukotriene D4-induced increase in amyloid-beta generation: inhibited
[5]; mice, sub-dura injection
  learning impairment and memory loss caused by leukotriene D4 treatment: improves
